Results as given in ChEMBL document CHEMBL4507317, “Data for DCP probe BAY-899” (2021).

Key:
[1] = target: AP2-associated protein kinase 1 (Homo sapiens) (UniProt Q2M2I8); settings: Compound concentration 1000.0 nM
[2] = target: Tyrosine-protein kinase ABL1 (Homo sapiens) (UniProt P00519); settings: Compound concentration 1000.0 nM
[3] = target: ALK tyrosine kinase receptor (Homo sapiens) (UniProt Q9UM73); settings: Compound concentration 1000.0 nM
[4] = target: BMP-2-inducible protein kinase (Homo sapiens) (UniProt Q9NSY1); settings: Compound concentration 1000.0 nM
[5] = target: Calcium/calmodulin-dependent protein kinase type 1B (Homo sapiens) (UniProt Q6P2M8); settings: Compound concentration 1000.0 nM
[6] = target: Cyclin-dependent kinase 11A (Homo sapiens) (UniProt Q9UQ88); settings: Compound concentration 1000.0 nM
[7] = target: Cyclin-dependent kinase 5 (Homo sapiens) (UniProt Q00535); settings: Compound concentration 1000.0 nM
[8] = target: Casein kinase I isoform alpha-like (Homo sapiens) (UniProt Q8N752); settings: Compound concentration 1000.0 nM
[9] = target: Death-associated protein kinase 3 (Homo sapiens) (UniProt O43293); settings: Compound concentration 1000.0 nM
[10] = test system: Epidermal growth factor receptor (Homo sapiens), P00533 [T790M]; settings: Compound concentration 1000.0 nM
[11] = target: Ephrin type-A receptor 4 (Homo sapiens) (UniProt P54764); settings: Compound concentration 1000.0 nM
[12] = target: Ephrin type-A receptor 8 (Homo sapiens) (UniProt P29322); settings: Compound concentration 1000.0 nM
[13] = target: Mitogen-activated protein kinase 4 (Homo sapiens) (UniProt P31152); settings: Compound concentration 1000.0 nM
[14] = target: Serine/threonine-protein kinase/endoribonuclease IRE1 (Homo sapiens) (UniProt O75460); settings: Compound concentration 1000.0 nM
[15] = target: Fibroblast growth factor receptor 3 (Homo sapiens) (UniProt P22607); settings: Compound concentration 1000.0 nM
[16] = test system: Fibroblast growth factor receptor 3 (Homo sapiens), P22607 [G697C]; settings: Compound concentration 1000.0 nM
[17] = target: G protein-coupled receptor kinase 4 (Homo sapiens) (UniProt P32298); settings: Compound concentration 1000.0 nM
[18] = target: Mitogen-activated protein kinase kinase kinase kinase 1 (Homo sapiens) (UniProt Q92918); settings: Compound concentration 1000.0 nM
[19] = target: Hormonally up-regulated neu tumor-associated kinase (Homo sapiens) (UniProt P57058); settings: Compound concentration 1000.0 nM
[20] = target: Tyrosine-protein kinase JAK3 (Homo sapiens) (UniProt P52333); settings: Compound concentration 1000.0 nM
[21] = target: Mitogen-activated protein kinase 8 (Homo sapiens) (UniProt P45983); settings: Compound concentration 1000.0 nM
[22] = target: Serine/threonine-protein kinase MAK (Homo sapiens) (UniProt P20794); settings: Compound concentration 1000.0 nM
[23] = target: Mitogen-activated protein kinase kinase kinase 4 (Homo sapiens) (UniProt Q9Y6R4); settings: Compound concentration 1000.0 nM
[24] = target: Dual specificity mitogen-activated protein kinase kinase 1 (Homo sapiens) (UniProt Q02750); settings: Compound concentration 1000.0 nM
[25] = target: MAP kinase-interacting serine/threonine-protein kinase 1 (Homo sapiens) (UniProt Q9BUB5); settings: Compound concentration 1000.0 nM
[26] = target: Serine/threonine-protein kinase Nek9 (Homo sapiens) (UniProt Q8TD19); settings: Compound concentration 1000.0 nM
[27] = target: Phosphatidylinositol 3-kinase C2 domain-containing subunit gamma (Homo sapiens) (UniProt O75747); settings: Compound concentration 1000.0 nM
[28] = test system: Phosphatidylinositol 4,5-bisphosphate 3-kinase catalytic subunit alpha isoform (Homo sapiens), P42336 [I800L]; settings: Compound concentration 1000.0 nM
[29] = target: Serine/threonine-protein kinase pim-3 (Homo sapiens) (UniProt Q86V86); settings: Compound concentration 1000.0 nM
[30] = target: Phosphatidylinositol 4-phosphate 5-kinase type-1 gamma (Homo sapiens) (UniProt O60331); settings: Compound concentration 1000.0 nM
[31] = target: cGMP-dependent protein kinase 2 (Homo sapiens) (UniProt Q13237); settings: Compound concentration 1000.0 nM
[32] = target: RAF proto-oncogene serine/threonine-protein kinase (Homo sapiens) (UniProt P04049); settings: Compound concentration 1000.0 nM
[33] = target: Serine/threonine-protein kinase RIO3 (Homo sapiens) (UniProt O14730); settings: Compound concentration 1000.0 nM
[34] = target: Ribosomal protein S6 kinase alpha-6 (Homo sapiens) (UniProt Q9UK32); settings: Compound concentration 1000.0 nM
[35] = target: SRSF protein kinase 1 (Homo sapiens) (UniProt Q96SB4); settings: Compound concentration 1000.0 nM
[36] = target: Mitogen-activated protein kinase kinase kinase 7 (Homo sapiens) (UniProt O43318); settings: Compound concentration 1000.0 nM
[37] = target: Tyrosine-protein kinase TXK (Homo sapiens) (UniProt P42681); settings: Compound concentration 1000.0 nM
[38] = target: Vascular endothelial growth factor receptor 2 (Homo sapiens) (UniProt P35968); settings: Compound concentration 1000.0 nM
[39] = target: 5-hydroxytryptamine receptor 1E (Homo sapiens) (UniProt P28566); settings: Compound concentration 10.0 uM
[40] = target: D(2) dopamine receptor (Homo sapiens) (UniProt P14416); settings: Compound concentration 10.0 uM
[41] = target: Muscarinic acetylcholine receptor M2 (Homo sapiens) (UniProt P08172); settings: Compound concentration 10.0 uM
[42] = target: Sigma non-opioid intracellular receptor 1 (Homo sapiens, UniProt Q99720); settings: Compound concentration 10.0 uM

Cyclin-dependent kinase 11A (Homo sapiens), sequence (Q9UQ88 whole entry): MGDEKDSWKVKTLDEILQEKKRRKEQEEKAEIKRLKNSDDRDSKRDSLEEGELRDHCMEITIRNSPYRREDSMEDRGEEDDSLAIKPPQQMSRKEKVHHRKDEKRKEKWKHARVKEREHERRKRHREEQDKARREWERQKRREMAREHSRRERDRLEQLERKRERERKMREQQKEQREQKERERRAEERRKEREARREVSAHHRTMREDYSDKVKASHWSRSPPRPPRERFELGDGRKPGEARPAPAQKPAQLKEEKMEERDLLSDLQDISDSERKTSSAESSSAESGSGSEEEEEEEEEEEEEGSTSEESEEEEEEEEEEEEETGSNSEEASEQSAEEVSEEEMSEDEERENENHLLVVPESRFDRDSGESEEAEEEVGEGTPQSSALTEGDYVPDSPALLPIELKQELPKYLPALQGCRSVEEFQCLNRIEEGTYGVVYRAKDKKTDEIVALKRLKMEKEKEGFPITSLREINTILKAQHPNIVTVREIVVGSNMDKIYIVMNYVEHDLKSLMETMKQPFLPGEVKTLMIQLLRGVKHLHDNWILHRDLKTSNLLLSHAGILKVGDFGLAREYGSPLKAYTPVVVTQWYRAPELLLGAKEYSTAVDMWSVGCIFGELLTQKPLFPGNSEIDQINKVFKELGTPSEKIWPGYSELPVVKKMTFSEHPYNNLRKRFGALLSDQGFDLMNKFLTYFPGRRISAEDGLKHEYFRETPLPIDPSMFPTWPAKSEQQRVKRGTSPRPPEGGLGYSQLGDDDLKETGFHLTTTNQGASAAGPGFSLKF
Mitogen-activated protein kinase kinase kinase 4 (Homo sapiens), sequence (Q9Y6R4 whole entry): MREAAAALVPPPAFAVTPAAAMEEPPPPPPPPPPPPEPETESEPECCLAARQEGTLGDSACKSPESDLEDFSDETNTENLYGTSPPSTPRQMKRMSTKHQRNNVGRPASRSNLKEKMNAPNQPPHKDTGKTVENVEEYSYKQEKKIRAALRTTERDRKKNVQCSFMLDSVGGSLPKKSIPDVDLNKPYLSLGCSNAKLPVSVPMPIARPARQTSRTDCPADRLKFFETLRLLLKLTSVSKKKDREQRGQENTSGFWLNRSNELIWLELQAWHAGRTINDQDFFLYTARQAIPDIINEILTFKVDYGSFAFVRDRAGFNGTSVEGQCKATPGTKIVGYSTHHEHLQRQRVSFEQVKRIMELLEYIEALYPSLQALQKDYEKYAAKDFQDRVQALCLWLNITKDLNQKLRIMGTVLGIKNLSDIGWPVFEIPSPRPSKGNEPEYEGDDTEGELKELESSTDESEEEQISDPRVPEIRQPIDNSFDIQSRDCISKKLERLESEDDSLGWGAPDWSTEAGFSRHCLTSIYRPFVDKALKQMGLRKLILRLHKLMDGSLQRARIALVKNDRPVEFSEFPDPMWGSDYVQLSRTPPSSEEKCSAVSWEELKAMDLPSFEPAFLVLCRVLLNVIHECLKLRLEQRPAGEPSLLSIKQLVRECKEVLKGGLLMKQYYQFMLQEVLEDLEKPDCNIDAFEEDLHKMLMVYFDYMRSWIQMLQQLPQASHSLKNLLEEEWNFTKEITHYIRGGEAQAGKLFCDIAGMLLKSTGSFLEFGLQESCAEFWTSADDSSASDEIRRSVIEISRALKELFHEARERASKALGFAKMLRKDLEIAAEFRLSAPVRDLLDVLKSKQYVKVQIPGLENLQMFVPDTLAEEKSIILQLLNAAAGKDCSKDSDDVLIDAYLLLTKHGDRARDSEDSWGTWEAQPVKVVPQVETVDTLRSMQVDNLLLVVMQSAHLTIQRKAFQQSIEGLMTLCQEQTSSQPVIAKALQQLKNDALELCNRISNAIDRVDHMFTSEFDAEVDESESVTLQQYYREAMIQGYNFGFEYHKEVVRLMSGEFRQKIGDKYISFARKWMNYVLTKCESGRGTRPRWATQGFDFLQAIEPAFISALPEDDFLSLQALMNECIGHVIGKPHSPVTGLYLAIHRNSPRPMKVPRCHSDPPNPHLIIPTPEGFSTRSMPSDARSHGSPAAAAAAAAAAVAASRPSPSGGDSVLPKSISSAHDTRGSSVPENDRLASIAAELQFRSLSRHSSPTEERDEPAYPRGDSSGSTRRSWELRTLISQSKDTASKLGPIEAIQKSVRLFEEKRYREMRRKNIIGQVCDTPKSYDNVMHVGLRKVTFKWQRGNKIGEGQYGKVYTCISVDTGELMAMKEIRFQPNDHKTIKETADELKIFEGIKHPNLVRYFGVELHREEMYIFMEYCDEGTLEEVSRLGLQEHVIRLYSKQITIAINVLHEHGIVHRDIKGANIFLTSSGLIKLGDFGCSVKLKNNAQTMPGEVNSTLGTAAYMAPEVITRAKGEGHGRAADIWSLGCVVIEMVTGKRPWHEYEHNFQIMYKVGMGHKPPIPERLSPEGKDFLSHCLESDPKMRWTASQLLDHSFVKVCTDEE
Serine/threonine-protein kinase Nek9 (Homo sapiens), sequence (Q8TD19 whole entry, the tested form may be a part): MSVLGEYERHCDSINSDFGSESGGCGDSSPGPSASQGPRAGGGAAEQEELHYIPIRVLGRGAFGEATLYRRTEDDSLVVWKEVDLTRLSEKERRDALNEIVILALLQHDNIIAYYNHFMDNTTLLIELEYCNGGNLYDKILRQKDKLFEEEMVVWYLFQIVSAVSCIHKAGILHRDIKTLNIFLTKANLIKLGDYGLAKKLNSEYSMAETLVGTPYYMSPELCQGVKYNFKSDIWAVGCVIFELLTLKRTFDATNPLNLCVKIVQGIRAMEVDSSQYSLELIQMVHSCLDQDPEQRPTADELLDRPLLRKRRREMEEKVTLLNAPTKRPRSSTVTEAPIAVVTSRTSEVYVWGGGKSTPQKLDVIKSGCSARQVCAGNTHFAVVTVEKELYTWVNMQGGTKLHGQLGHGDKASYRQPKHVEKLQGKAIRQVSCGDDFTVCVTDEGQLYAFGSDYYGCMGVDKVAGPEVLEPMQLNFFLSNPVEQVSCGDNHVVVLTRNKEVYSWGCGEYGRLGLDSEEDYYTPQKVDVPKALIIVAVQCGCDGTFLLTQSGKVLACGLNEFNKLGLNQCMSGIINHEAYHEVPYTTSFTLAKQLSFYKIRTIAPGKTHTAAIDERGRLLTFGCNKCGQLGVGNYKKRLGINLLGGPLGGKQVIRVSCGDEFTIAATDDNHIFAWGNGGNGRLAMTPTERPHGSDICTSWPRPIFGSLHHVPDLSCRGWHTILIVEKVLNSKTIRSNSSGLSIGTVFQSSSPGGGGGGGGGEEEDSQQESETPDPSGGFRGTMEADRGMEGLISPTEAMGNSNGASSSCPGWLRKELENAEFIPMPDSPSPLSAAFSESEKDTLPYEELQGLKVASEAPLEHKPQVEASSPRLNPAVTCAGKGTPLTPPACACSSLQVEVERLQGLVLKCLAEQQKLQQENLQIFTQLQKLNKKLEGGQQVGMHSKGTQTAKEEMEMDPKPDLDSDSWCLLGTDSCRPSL
Casein kinase I isoform alpha-like (Homo sapiens), sequence (Q8N752 whole entry, canonical isoform): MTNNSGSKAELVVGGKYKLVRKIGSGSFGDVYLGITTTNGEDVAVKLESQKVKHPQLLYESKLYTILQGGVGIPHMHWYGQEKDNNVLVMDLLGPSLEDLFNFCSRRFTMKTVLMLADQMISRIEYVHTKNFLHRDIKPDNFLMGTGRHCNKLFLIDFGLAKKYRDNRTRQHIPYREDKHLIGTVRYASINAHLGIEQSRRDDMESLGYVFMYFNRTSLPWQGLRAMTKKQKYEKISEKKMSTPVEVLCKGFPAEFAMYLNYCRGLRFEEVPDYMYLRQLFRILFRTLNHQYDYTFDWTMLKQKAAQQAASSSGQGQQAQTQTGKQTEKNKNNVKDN
5-hydroxytryptamine receptor 1E (Homo sapiens), sequence (P28566 whole entry): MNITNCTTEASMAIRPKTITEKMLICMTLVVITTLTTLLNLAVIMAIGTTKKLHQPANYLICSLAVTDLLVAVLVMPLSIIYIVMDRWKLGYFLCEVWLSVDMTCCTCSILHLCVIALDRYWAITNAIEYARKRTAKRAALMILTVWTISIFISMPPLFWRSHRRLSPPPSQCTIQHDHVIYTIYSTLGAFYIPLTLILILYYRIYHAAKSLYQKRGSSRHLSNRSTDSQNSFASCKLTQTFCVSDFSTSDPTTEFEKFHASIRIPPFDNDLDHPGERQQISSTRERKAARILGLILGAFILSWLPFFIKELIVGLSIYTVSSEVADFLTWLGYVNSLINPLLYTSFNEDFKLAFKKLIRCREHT
Death-associated protein kinase 3 (Homo sapiens), sequence (O43293 whole entry, looked up): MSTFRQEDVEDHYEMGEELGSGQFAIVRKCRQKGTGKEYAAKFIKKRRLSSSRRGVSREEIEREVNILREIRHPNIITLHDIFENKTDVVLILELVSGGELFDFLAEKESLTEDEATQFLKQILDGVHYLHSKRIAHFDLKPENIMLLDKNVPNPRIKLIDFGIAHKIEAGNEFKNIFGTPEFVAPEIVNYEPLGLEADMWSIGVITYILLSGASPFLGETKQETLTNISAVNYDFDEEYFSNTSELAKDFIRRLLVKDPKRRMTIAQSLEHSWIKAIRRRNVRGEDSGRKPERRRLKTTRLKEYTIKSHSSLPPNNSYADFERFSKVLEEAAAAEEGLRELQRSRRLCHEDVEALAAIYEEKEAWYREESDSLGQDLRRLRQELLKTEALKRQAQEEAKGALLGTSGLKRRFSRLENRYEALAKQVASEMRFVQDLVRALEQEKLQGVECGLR
MAP kinase-interacting serine/threonine-protein kinase 1 (Homo sapiens), sequence (Q9BUB5 whole entry, looked up): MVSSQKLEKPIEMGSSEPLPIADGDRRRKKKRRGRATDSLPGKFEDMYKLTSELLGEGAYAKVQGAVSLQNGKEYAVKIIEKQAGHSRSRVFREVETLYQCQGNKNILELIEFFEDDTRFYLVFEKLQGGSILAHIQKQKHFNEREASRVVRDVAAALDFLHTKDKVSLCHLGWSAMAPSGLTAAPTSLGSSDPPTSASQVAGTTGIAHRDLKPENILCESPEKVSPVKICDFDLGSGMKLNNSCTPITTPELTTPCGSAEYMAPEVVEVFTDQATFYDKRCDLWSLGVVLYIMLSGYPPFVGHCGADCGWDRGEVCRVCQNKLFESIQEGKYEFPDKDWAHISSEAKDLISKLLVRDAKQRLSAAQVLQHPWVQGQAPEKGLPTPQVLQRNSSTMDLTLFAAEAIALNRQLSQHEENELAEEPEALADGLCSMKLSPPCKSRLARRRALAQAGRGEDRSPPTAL

O=C(Nc1cnc(Oc2ccc(F)cc2)nc1)N1CCc2ncccc2[C@@H]1c1ccc(F)cc1 [BAY-899]
active: inhibition [42] 64.4%
inactive: residual activity [1] 91% | residual activity [2] 94% | residual activity [3] 99% | residual activity [4] 93% | residual activity [5] 100% | residual activity [6] 91% | residual activity [7] 100% | residual activity [8] 82% | residual activity [9] 100% | residual activity [10] 91% | residual activity [11] 88% | residual activity [12] 88% | residual activity [13] 95% | residual activity [14] 85% | residual activity [15] 89% | residual activity [16] 89% | residual activity [17] 67% | residual activity [18] 100% | residual activity [19] 100% | residual activity [20] 91% | residual activity [21] 83% | residual activity [22] 100% | residual activity [23] 89% | residual activity [24] 93% | residual activity [25] 95% | residual activity [26] 90% | residual activity [27] 97% | residual activity [28] 69% | residual activity [29] 82% | residual activity [30] 100% | residual activity [31] 100% | residual activity [32] 100% | residual activity [33] 89% | residual activity [34] 100% | residual activity [35] 100% | residual activity [36] 90% | residual activity [37] 87% | residual activity [38] 88% | inhibition [39] -8.08% | inhibition [40] 1.65% | inhibition [41] -5.1%

O=C(Nc1ccc(Oc2ccc(F)cc2)cc1)N1CCc2ncccc2[C@H]1c1ccc(F)cc1 [BAY-897]
inactive: residual activity [1] 95% | residual activity [2] 100% | residual activity [3] 100% | residual activity [4] 94% | residual activity [5] 96% | residual activity [6] 92% | residual activity [7] 100% | residual activity [8] 92% | residual activity [9] 100% | residual activity [10] 87% | residual activity [11] 100% | residual activity [12] 92% | residual activity [13] 95% | residual activity [14] 85% | residual activity [15] 83% | residual activity [16] 100% | residual activity [17] 93% | residual activity [18] 100% | residual activity [19] 99% | residual activity [20] 100% | residual activity [21] 91% | residual activity [22] 100% | residual activity [23] 100% | residual activity [24] 98% | residual activity [25] 95% | residual activity [26] 88% | residual activity [27] 100% | residual activity [28] 66% | residual activity [29] 79% | residual activity [30] 96% | residual activity [31] 100% | residual activity [32] 100% | residual activity [33] 96% | residual activity [34] 91% | residual activity [35] 94% | residual activity [36] 89% | residual activity [37] 100% | residual activity [38] 100% | inhibition [39] 1.61% | inhibition [40] -3.97% | inhibition [41] -1.78%
active: inhibition [42] 73.4%
